In patent US20230099756A1, “METHODS OF USING ANTI-CD79B IMMUNOCONJUGATES TO TREAT DIFFUSE LARGE B-CELL LYMPHOMA” (Genentech, Inc., priority 2021, published 2023):
Where a SMILES comes first, the peptide text is derived from it. [ ]: non-standard residue; d: D form. The star is where a group is joined. Dolaproine = CO[C@@H]([C@@H]1CCCN1)[C@@H](C)C(=O)O; Dil = CC[C@H](C)[C@H](NC)[C@@H](CC(=O)O)OC; X1 = C[C@@H](N*)[C@@H](O)c1ccccc1; NMeV = CN[C@H](C(=O)O)C(C)C

Columns and labels:
Type in all cases: in vitro ADME
P-glycoprotein (P-gp) = P-glycoprotein (P-gp) (Homo sapiens, UniProt P08183); test: P-glycoprotein substrate and inhibitor status of MMAE
Chain of P-glycoprotein (P-gp) (P08183 whole entry): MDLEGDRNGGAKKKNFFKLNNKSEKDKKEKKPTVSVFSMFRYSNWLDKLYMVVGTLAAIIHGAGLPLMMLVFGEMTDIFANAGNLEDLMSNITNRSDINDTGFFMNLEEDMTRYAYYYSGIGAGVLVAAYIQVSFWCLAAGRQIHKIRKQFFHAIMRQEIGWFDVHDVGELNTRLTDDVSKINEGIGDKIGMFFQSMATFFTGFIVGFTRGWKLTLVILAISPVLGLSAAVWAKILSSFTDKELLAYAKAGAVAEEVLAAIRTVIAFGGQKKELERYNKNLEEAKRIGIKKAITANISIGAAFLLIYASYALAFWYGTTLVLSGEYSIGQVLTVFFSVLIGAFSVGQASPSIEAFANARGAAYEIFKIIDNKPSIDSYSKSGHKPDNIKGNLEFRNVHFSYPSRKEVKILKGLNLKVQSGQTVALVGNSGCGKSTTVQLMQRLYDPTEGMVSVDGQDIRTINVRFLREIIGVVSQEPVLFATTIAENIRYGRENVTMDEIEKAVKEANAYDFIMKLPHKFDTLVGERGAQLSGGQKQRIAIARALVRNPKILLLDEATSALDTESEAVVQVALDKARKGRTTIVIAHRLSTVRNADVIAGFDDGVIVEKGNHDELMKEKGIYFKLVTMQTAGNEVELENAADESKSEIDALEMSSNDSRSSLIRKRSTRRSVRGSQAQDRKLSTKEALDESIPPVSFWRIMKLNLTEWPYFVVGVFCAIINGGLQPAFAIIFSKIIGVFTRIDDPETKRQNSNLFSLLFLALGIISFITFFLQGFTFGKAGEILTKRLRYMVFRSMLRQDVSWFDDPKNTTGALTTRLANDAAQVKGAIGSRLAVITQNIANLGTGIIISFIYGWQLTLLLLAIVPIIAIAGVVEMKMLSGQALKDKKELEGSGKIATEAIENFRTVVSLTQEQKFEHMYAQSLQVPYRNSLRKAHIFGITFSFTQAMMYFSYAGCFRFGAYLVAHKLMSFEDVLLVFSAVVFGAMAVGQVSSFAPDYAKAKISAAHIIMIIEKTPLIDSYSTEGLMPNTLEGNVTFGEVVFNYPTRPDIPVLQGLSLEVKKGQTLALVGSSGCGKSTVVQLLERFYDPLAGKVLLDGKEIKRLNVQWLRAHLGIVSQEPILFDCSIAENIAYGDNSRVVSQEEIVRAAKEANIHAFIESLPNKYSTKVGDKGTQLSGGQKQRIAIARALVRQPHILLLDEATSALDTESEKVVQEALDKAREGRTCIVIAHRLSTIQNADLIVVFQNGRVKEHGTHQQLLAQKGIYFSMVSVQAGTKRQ
From the text: (§1) Based on a validated physiological-based PK model simulation, strong CYP3A4 inhibitors may increase the exposure (e.g., area under the concentration-time curve) of unconjugated MMAE by […] while acMMAE PK is not affected. Concomitant medications that are strong CYP3A4 inhibitors are considered cautionary as they may potentially lead to adverse reactions, which require close monitoring. […] Concomitant medications that are P-gp inhibitors are considered cautionary as they may potentially lead to adverse reactions, which require close monitoring.

CYP2D6 = CYP2D6 (Homo sapiens, UniProt P10635); test: In vitro metabolism of unconjugated MMAE; conditions: in vitro data
Chain of CYP2D6 (P10635 whole entry): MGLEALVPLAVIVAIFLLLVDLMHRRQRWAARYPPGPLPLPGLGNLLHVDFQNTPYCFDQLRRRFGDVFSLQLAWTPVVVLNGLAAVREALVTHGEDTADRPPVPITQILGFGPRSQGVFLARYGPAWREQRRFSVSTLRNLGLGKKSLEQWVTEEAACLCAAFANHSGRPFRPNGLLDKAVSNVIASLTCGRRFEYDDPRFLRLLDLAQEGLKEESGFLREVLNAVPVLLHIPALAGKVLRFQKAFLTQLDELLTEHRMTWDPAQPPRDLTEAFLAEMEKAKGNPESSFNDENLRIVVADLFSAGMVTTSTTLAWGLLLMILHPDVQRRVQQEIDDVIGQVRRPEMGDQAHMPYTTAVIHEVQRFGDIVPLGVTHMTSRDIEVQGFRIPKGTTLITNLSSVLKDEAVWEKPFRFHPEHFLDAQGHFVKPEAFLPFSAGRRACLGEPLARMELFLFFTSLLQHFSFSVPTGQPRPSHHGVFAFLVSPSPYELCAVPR
From the text: as §1

CYP3A4 = CYP3A4 (Homo sapiens, UniProt P08684); test: In vitro metabolism of unconjugated MMAE; conditions: in vitro data
Chain of CYP3A4 (P08684 whole entry): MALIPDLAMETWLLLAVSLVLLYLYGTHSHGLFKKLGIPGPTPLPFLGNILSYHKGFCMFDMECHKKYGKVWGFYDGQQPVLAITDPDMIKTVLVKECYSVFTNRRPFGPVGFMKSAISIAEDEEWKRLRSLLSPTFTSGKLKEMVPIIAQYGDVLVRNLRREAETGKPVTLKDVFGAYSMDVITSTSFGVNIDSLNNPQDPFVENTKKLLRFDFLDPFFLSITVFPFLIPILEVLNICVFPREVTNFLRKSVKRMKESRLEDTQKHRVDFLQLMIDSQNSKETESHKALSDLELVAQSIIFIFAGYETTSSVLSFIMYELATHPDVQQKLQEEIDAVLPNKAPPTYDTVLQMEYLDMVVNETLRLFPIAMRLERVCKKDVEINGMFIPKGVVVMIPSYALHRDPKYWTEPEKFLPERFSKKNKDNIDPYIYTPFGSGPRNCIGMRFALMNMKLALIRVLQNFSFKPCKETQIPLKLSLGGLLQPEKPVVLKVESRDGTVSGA
From the text: as §1

`CC[C@H](C)[C@@H]([C@@H](CC(=O)N1CCC[C@H]1[C@H](OC)[C@@H](C)C(=O)N[C@H](C)[C@@H](O)c1ccccc1)OC)N(C)C(=O)[C@@H](NC(=O)[C@@H](NC)C(C)C)C(C)C` [MMAE] (H-[NMeV]V[Dil][Dolaproine]-X1) was tested, and the P-gp inhibitor status (P-glycoprotein (P-gp)) was “not a P-gp inhibitor”, the P-gp substrate status (P-glycoprotein (P-gp)) was “P-glycoprotein (P-gp) substrate” and the “metabolism by CYP2D6” value (CYP2D6) was “to a lesser extent, by CYP2D6”. The “metabolism by CYP3A4” value (CYP3A4) was “mainly metabolized by CYP3A4”.
